Laboratory results taken from US20230172981A1, “METHODS AND COMPOSITIONS FOR STIMULATION OF CHIMERIC ANTIGEN RECEPTOR T CELLS WITH HAPTEN LABELLED CELLS” (Seattle Children's Hospital (dba Seattle Children's …, priority 2020, published 2023).

Test system: CD19+K562 cells
Assay: Cytokine release by antiFL CAR T cells with hapten-labeled cells
Type: cell-based
Conditions: trend; hapten-labeled cells prepared with 5 μM FL-DHPE
Method: Hapten-labeled cells were prepared. CD19+K562 cells were incubated either overnight with 5 μM FL-DHPE or for 20 min with an CD19 antibody labeled with FITC. The hapten-labeled cells were incubated with either one of two antiFL CAR T cells (FITC-E2 scFv, or 4M5.3 scFv). […] Hudecek M, et al., (2013) Clin Cancer Res. 19:3153-64, which is incorporated by reference in its entirety.
The levels of cytokines released by the antiFL CAR T cells were determined. […] The levels of released IFN-γ, and TNF-α were lower for hapten-labeled cells contacted with the antiFL(4M5.3) CAR T cell.

CCCCCCCCCCCCCCCC(=O)OCC(COP(=O)(O)OCCNC(=S)Nc1ccc2c(c1)C(=O)OC21c2ccc(O)cc2Oc2cc(O)ccc21)OC(=O)CCCCCCCCCCCCCCC (stereo not shown) [FL-DHPE, N-(Fluorescein-5-Thiocarbamoyl)-1,2-Dihexadecanoyl-sn-Glycero-3-Phosphoethanolamine]
cytokine release induced, compared to cells prepared with CD19 antibody labeled with FITC: higher levels of cytokine release
